Values belong to the molecule of their own block, whether it stands above or below them.
How the values were obtained:
Nluc-FZD6 = molecular target: T1, Nluc-FZD6 (Homo sapiens, UniProt O60353); assay: BRET-based BODIPY-cyclopamine competition binding at Nluc-FZD6 in live HEK293 cells; settings: for Displacement @ 10 µM compound (Nluc-FZD6) ΔBRET / Displacement %: BODIPY-cyclopamine 300 nM, 10 µM compound
T1 construct: expressed in transfected cells; host or cells: ΔSMO HEK293A or ΔFZD1–10 HEK293T cells (screen); ΔFZD1–10 HEK293T cells (concentration–response curves)
T1 sequence (O60353 19-706): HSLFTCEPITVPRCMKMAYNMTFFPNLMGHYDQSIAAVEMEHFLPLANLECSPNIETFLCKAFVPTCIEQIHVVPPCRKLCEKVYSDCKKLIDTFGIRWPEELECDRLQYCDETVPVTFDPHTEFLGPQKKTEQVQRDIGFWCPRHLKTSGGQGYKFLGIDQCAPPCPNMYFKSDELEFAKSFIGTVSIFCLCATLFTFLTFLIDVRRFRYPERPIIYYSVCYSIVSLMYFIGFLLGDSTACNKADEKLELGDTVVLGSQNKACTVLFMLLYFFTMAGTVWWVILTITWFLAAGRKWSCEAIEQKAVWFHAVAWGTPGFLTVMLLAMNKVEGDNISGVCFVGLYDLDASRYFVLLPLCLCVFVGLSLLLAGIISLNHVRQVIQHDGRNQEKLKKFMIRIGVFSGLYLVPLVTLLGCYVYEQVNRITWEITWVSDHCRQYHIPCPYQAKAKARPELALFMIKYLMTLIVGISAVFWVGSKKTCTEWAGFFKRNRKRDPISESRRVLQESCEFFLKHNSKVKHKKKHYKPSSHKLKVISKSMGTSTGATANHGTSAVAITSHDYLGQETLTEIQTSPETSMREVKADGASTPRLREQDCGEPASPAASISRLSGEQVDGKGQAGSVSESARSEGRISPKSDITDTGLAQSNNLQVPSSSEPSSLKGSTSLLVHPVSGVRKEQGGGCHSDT
Procedure: After 24 h, cells were washed once with Hanks' balanced salt solution (HBSS), followed by the addition of 80 μl of HBSS. Next, 10 μl of the competitive ligand, that is, the tested SAG1.3 derivative (either in different concentrations for the concentration–response curves or at a final concentration of 10 μM for the first screens) and 10 μl of the fluorescent tracer BODIPY–cyclopamine (final concentration: 300 nM for the first screens, 200 nM for the concentration–response experiments) were added. All serial dilutions were prepared in HBSS. The cells were incubated for 90 min at 37 °C without additional CO2, after which 10 μl of luciferase substrate diluted in HBSS (furimazine; Promega, N1572, final dilution: 1:1000 for first screening) and coelenterazine h (Biosynth; final concentration: 5 μM for concentration–response experiments) were added to the cells. Following a 10 min incubation period in the dark, the measurement was started on a BMG Labtech ClarioStar or TECAN Spark multimode microplate reader, prewarmed to 37 °C. Nluc bioluminescence was detected between 460 and 490 nm (ClarioStar) or 460 and 500 nm (TECAN Spark). The emission of the fluorescent tracer was detected between 520 and 550 nm (ClarioStar) or between 520 and 560 nm (TECAN Spark).
For each binding experiment, the measurement was repeated five times and averaged for the analysis. ΔBRET values were obtained by subtracting the BRET ratio obtained in wells containing BODIPY–cyclopamine but no competitive ligand (100% value). The BRET values for full displacement were defined using “donor-only” control wells, which contained Nluc-FZDx-transfected cells but no BODIPY–cyclopamine.
For the full concentration–response BRET binding curves in Figure 2, BRET values were normalized (separately for each experiment) to control wells containing BODIPY–cyclopamine but no competitive ligand (100% value) and “donor-only” wells (0% value, described previously). […] Obtained IC50 values were transformed to pIC50 values, which were subsequently averaged between experiments. Displacement curves showing the non-normalized data (ΔBRET values generated as described previously) can be found in Fig. S2.
Shown are mean values and SDs from N independent experiments (N = 2-8) performed in duplicate.
Shown are mean values ± SEM from N independent experiments performed in triplicate.

FZD6 = test system: FZD6; design: method as in PMID 31964872, PMID 34168128; settings: ref [18], [24]; cited from earlier work
[1] = design: method as in PMID 31338636, PMID 32803633; settings: ref [14], [54]; cited from earlier work
[2] = BMG Labtech ClarioStar reader (complete tracer displacement: net BRET = -0.02736)
[3] = TECAN Spark reader (complete tracer displacement: net BRET = -0.03823)
[4] = BODIPY-cyclopamine 200 nM, ΔFZD1-10 HEK293T cells

Molecule: CN[C@H]1CC[C@H](N(Cc2cccc(-c3ccncc3)c2)C(=O)c2sc3ccccc3c2Cl)CC1.Cl.Cl [SAG1.3, 3-chloro-N-[trans-4-(methylamino)cyclohexyl]-N-[[3-(4-pyridinyl)phenyl]methyl]-benzo[b]thiophene-2-carboxamide dihydrochloride]
Displacement @ 10 µM compound (Nluc-FZD6) ΔBRET (Nluc-FZD6; [2]): -0.0099
Displacement % (Nluc-FZD6; ClarioStar reader): 36.1%
Displacement % (Nluc-FZD6; TECAN Spark reader): 38.7%
Displacement @ 10 µM compound (Nluc-FZD6) ΔBRET (Nluc-FZD6; [3]): -0.0148
Efficacy at FZD6 (FZD6): very low efficacy
Potency at FZD6 (FZD6): double-digit micromolar potency

Molecule: O=C(N[C@H]1CC[C@H](N(Cc2cccc(-c3ccncc3)c2)C(=O)c2sc3ccccc3c2Cl)CC1)c1ccco1 [compound 10]
Displacement @ 10 µM compound (Nluc-FZD6) ΔBRET (Nluc-FZD6; [2]): -0.0207
Displacement % (Nluc-FZD6; ClarioStar reader): 75.5%
pIC50 (Nluc-FZD6) mean ± SEM (Nluc-FZD6; [4]): 5.29 ± 0.02

Molecule: CN1CCC(C(=O)Nc2cccc(C(=O)N[C@H]3CC[C@H](N(Cc4cccc(-c5ccncc5)c4)C(=O)c4sc5ccccc5c4Cl)CC3)c2)CC1 [compound 17, N-(3-(((1r,4r)-4-(3-Chloro-N-(3-(pyridin-4-yl)benzyl)benzo[b]thiophene-2-carboxamido)cyclohexyl)-carbamoyl)phenyl)-1-methylpiperidine-4-carboxamide]
Displacement % (Nluc-FZD6; TECAN Spark reader): 73.6%
Displacement @ 10 µM compound (Nluc-FZD6) ΔBRET (Nluc-FZD6; [3]): -0.0281
pIC50 (Nluc-FZD6) mean ± SEM (Nluc-FZD6; [4]): 5.49 ± 0.04

Molecule: O=C(N[C@H]1CC[C@H](N(Cc2cccc(-c3ccncc3)c2)C(=O)c2sc3ccccc3c2Cl)CC1)c1ccncc1Cl [compound 21, 3-Chloro-N-((1r,4r)-4-(3-chloro-N-(3-(pyridin-4-yl)benzyl)benzo[b]thiophene-2-carboxamido)cyclohexyl)isonicotinamide]
Displacement % (Nluc-FZD6; TECAN Spark reader): 78.2%
Displacement @ 10 µM compound (Nluc-FZD6) ΔBRET (Nluc-FZD6; [3]): -0.0299
pIC50 (Nluc-FZD6) mean ± SEM (Nluc-FZD6; [4]): 5.44 ± 0.05

Molecule: Nc1ccc(C(=O)N[C@H]2CC[C@H](N(Cc3cccc(-c4ccncc4)c3)C(=O)c3sc4ccccc4c3Cl)CC2)nn1 [compound 23, 6-Amino-N-((1r,4r)-4-(3-chloro-N-(3-(pyridin-4-yl)benzyl)benzo[b]thiophene-2-carboxamido)cyclohexyl)pyridazine-3-carboxamide]
Displacement % (Nluc-FZD6; TECAN Spark reader): 85.8%
Displacement @ 10 µM compound (Nluc-FZD6) ΔBRET (Nluc-FZD6; [3]): -0.0328
pIC50 (Nluc-FZD6) mean ± SEM (Nluc-FZD6; [4]): 5.54 ± 0.03

B1: vantictumab: monoclonal antibody binding to five of 10 FZD paralogs (antibody, chains of the INN, looked up, V domains shown)
VH: EVQLVESGGGLVQPGGSLRLSCAASGFTFSHYTLSWVRQAPGKGLEWVSVISGDGSYTYYADSVKGRFTISSDNSKNTLYLQMNSLRAEDTAVYYCARNFIKYVFANWGQGTLVTVSS
VL: DIELTQPPSVSVAPGQTARISCSGDNIGSFYVHWYQQKPGQAPVLVIYDKSNRPSGIPERFSGSNSGNTATLTISGTQAEDEADYYCQSYANTLSLVFGGGTKLTVL
Reason for dismissal in phase Ib clinical trials [1]: bone toxicity

Now from value to molecule:

Displacement % (Nluc-FZD6; TECAN Spark reader): 75.9%
Displacement @ 10 µM compound (Nluc-FZD6) ΔBRET (Nluc-FZD6; [3]): -0.0290
pIC50 (Nluc-FZD6) mean ± SEM (Nluc-FZD6; [4]): 5.57 ± 0.17
Molecule: CCC(=O)Nc1cccc(C(=O)N[C@H]2CC[C@H](N(Cc3cccc(-c4ccncc4)c3)C(=O)c3sc4ccccc4c3Cl)CC2)c1 [compound 14, 3-Chloro-N-((1r,4r)-4-(3-propionamidobenzamido)cyclohexyl)-N-(3-(pyridin-4-yl)benzyl)benzo[b]thiophene-2-carboxamide]

Displacement % (Nluc-FZD6; TECAN Spark reader): 70.1%
Displacement @ 10 µM compound (Nluc-FZD6) ΔBRET (Nluc-FZD6; [3]): -0.0268
pIC50 (Nluc-FZD6) mean ± SEM (Nluc-FZD6; [4]): 5.13 ± 0.16
Molecule: CC(C)C(=O)Nc1cccc(C(=O)N[C@H]2CC[C@H](N(Cc3cccc(-c4ccncc4)c3)C(=O)c3sc4ccccc4c3Cl)CC2)c1 [compound 15, 3-Chloro-N-((1r,4r)-4-(3-isobutyramidobenzamido)cyclohexyl)-N-(3-(pyridin-4-yl)benzyl)benzo[b]thiophene-2-carboxamide]

Displacement % (Nluc-FZD6; TECAN Spark reader): 81.1%
Displacement @ 10 µM compound (Nluc-FZD6) ΔBRET (Nluc-FZD6; [3]): -0.0310
pIC50 (Nluc-FZD6) mean ± SEM (Nluc-FZD6; [4]): 5.50 ± 0.04
Molecule: CN1CCN(CC(=O)Nc2cccc(C(=O)N[C@H]3CC[C@H](N(Cc4cccc(-c5ccncc5)c4)C(=O)c4sc5ccccc5c4Cl)CC3)c2)CC1 [compound 18, 3-Chloro-N-((1r,4r)-4-(3-(2-(4-methylpiperazin-1-yl)acetamido)benzamido)cyclohexyl)-N-(3-(pyridin-4-yl)benzyl)benzo[b]thiophene-2-carboxamide]

Displacement % (Nluc-FZD6; TECAN Spark reader): 87.6%
Displacement @ 10 µM compound (Nluc-FZD6) ΔBRET (Nluc-FZD6; [3]): -0.0335
pIC50 (Nluc-FZD6) mean ± SEM (Nluc-FZD6; [4]): 5.71 ± 0.04
Molecule: O=C(CN1CCOCC1)Nc1cccc(C(=O)N[C@H]2CC[C@H](N(Cc3cccc(-c4ccncc4)c3)C(=O)c3sc4ccccc4c3Cl)CC2)c1 [compound 19, 3-Chloro-N-((1r,4r)-4-(3-(2-morpholinoacetamido)benzamido)cyclohexyl)-N-(3-(pyridin-4-yl)benzyl)benzo[b]thiophene-2-carboxamide]

Displacement @ 10 µM compound (Nluc-FZD6) ΔBRET (Nluc-FZD6; [2]): -0.0194
Displacement % (Nluc-FZD6; ClarioStar reader): 70.9%
IC50 (Nluc-FZD6; BODIPY-cyclopamine 200 nM, ΔFZD1-10 HEK293T cells, read-out: pIC50 (Nluc-FZD6) mean ± SEM (converted)): 8.71 µM
Molecule: O=C(NC1CCC(N(Cc2ccc(-c3cccnc3)cc2)C(=O)c2sc3ccccc3c2Cl)CC1)c1ccco1 (stereo not shown) [compound 52, N-(4-(3-Chloro-N-(4-(pyridin-3-yl)benzyl)benzo[b]thiophene-2-carboxamido)cyclohexyl)furan-2-carboxamide]

From article PMC12605013, “SAG1.3-derived Frizzled-targeting small-molecule compounds” (The Journal of Biological Chemistry, 2025)
